Test results from ChEMBL document CHEMBL3885881, “DrugMatrix”.

Organism: Rattus norvegicus
Test: DrugMatrix - Regimen: Daily Repeat
Type: toxicity, organism-based, Sprague-Dawley
Design: regimen Daily Repeat, gender Male, age 6-8 weeks
Conditions: in vivo, po, route oral GAVAGE, vehicle 100 % WATER; for ABSOLUTE BASOPHIL / ABSOLUTE EOSINOPHIL / ABSOLUTE LYMPHOCYTE / ABSOLUTE MONOCYTE / ABSOLUTE SEGMENTED NEUTROPHIL / BASOPHIL / EOSINOPHIL / ERYTHROCYTE COUNT / HEMATOCRIT / HEMOGLOBIN / LEUKOCYTE COUNT / LYMPHOCYTE / MEAN CORPUSCULAR HEMOGLOBIN / MEAN CORPUSCULAR HEMOGLOBIN CONCENTRATION / MEAN CORPUSCULAR VOLUME / MONOCYTE / NEUTROPHIL / NUCLEATED RED BLOOD CELLS / PLATELET COUNT: tissue Blood; for ALANINE AMINOTRANSFERASE / ALBUMIN / ALKALINE PHOSPHATASE / ASPARTATE AMINOTRANSFERASE / BLOOD UREA NITROGEN / CARBON DIOXIDE / CHLORIDE / CHOLESTEROL / CREATINE PHOSPHOKINASE / CREATININE / GLUCOSE / LACTATE DEHYDROGENASE / LIPASE / PHOSPHORUS / POTASSIUM / SODIUM / TOTAL BILIRUBIN / TOTAL PROTEIN / URIC ACID: tissue Plasma
[1] = 11 mg/kg, 120 h, dose level Low, time 5 day
[2] = 40 mg/kg, 72 h, dose level High, time 3 day
[3] = 40 mg/kg, 120 h, dose level High, time 5 day

SMILES: CN(C)C(=O)Oc1cccc([N+](C)(C)C)c1.[Br-] [NEOSTIGMINE BROMIDE]
- ABSOLUTE BASOPHIL [1]: 0 CELLS/uL
- ABSOLUTE EOSINOPHIL [1]: 28.67 CELLS/uL
- ABSOLUTE LYMPHOCYTE [1]: 4930.67 CELLS/uL
- ABSOLUTE MONOCYTE [1]: 109.33 CELLS/uL
- ABSOLUTE SEGMENTED NEUTROPHIL [1]: 798 CELLS/uL
- BASOPHIL [1]: 0%
- EOSINOPHIL [1]: 0.33%
- ERYTHROCYTE COUNT [1]: 5.49 x10E6/uL
- HEMATOCRIT [1]: 34.3%
- HEMOGLOBIN [1]: 13.23 G/DL
- LEUKOCYTE COUNT [1]: 5.87 x10E3/uL
- LYMPHOCYTE [1]: 83%
- MEAN CORPUSCULAR HEMOGLOBIN [1]: 24.1 pg
- MEAN CORPUSCULAR HEMOGLOBIN CONCENTRATION [1]: 38.57 G/DL
- MEAN CORPUSCULAR VOLUME [1]: 62.5 fL
- MONOCYTE [1]: 1.67%
- NEUTROPHIL [1]: 15%
- NUCLEATED RED BLOOD CELLS [1]: 0 /100WBC
- PLATELET COUNT [1]: 970 x10E3/uL
- ALANINE AMINOTRANSFERASE [1]: 54 u/L
- ALBUMIN [1]: 4 G/DL
- ALKALINE PHOSPHATASE [1]: 382.33 u/L
- ASPARTATE AMINOTRANSFERASE [1]: 83 u/L
- BLOOD UREA NITROGEN [1]: 14 mg/dL
- CARBON DIOXIDE [1]: 32.33 mmol/L
- CHLORIDE [1]: 99.33 MEQ/L
- CHOLESTEROL [1]: 67.33 mg/dL
- CREATINE PHOSPHOKINASE [1]: 225.33 u/L
- CREATININE [1]: 0.14 mg/dL
- GLUCOSE [1]: 155.33 mg/dL
- LACTATE DEHYDROGENASE [1]: 116 u/L
- LIPASE [1]: 9.33 u/L
- PHOSPHORUS [1]: 11.53 mg/dL
- POTASSIUM [1]: 5.88 MEQ/L
- SODIUM [1]: 144.8 MEQ/L
- TOTAL BILIRUBIN [1]: 0.17 mg/dL
- TOTAL PROTEIN [1]: 5.8 G/DL
- URIC ACID [1]: 0.8 mg/dL
- ABSOLUTE BASOPHIL [2]: 0 CELLS/uL
- ABSOLUTE EOSINOPHIL [2]: 29.33 CELLS/uL
- ABSOLUTE LYMPHOCYTE [2]: 8073 CELLS/uL
- ABSOLUTE MONOCYTE [2]: 28.67 CELLS/uL
- ABSOLUTE SEGMENTED NEUTROPHIL [2]: 702.33 CELLS/uL
- BASOPHIL [2]: 0%
- EOSINOPHIL [2]: 0.33%
- ERYTHROCYTE COUNT [2]: 5.28 x10E6/uL
- HEMATOCRIT [2]: 32.2%
- HEMOGLOBIN [2]: 12.53 G/DL
- LEUKOCYTE COUNT [2]: 8.83 x10E3/uL
- LYMPHOCYTE [2]: 91.33%
- MEAN CORPUSCULAR HEMOGLOBIN [2]: 23.7 pg
- MEAN CORPUSCULAR HEMOGLOBIN CONCENTRATION [2]: 38.93 G/DL
- MEAN CORPUSCULAR VOLUME [2]: 60.93 fL
- MONOCYTE [2]: 0.33%
- NEUTROPHIL [2]: 8%
- NUCLEATED RED BLOOD CELLS [2]: 0 /100WBC
- PLATELET COUNT [2]: 857.33 x10E3/uL
- ALANINE AMINOTRANSFERASE [2]: 53.67 u/L
- ALBUMIN [2]: 3.97 G/DL
- ALKALINE PHOSPHATASE [2]: 316.33 u/L
- ASPARTATE AMINOTRANSFERASE [2]: 90.33 u/L
- BLOOD UREA NITROGEN [2]: 13.33 mg/dL
- CARBON DIOXIDE [2]: 31.67 mmol/L
- CHLORIDE [2]: 100.67 MEQ/L
- CHOLESTEROL [2]: 85 mg/dL
- CREATINE PHOSPHOKINASE [2]: 289 u/L
- CREATININE [2]: 0.15 mg/dL
- GLUCOSE [2]: 135.33 mg/dL
- LACTATE DEHYDROGENASE [2]: 137.33 u/L
- LIPASE [2]: 9 u/L
- PHOSPHORUS [2]: 11.43 mg/dL
- POTASSIUM [2]: 6.3 MEQ/L
- SODIUM [2]: 143.1 MEQ/L
- TOTAL BILIRUBIN [2]: 0.2 mg/dL
- TOTAL PROTEIN [2]: 6.03 G/DL
- URIC ACID [2]: 0.83 mg/dL
- ABSOLUTE BASOPHIL [3]: 0 CELLS/uL
- ABSOLUTE EOSINOPHIL [3]: 26.33 CELLS/uL
- ABSOLUTE LYMPHOCYTE [3]: 8117.33 CELLS/uL
- ABSOLUTE MONOCYTE [3]: 169.67 CELLS/uL
- ABSOLUTE SEGMENTED NEUTROPHIL [3]: 1053.33 CELLS/uL
- BASOPHIL [3]: 0%
- EOSINOPHIL [3]: 0.33%
- ERYTHROCYTE COUNT [3]: 5.39 x10E6/uL
- HEMATOCRIT [3]: 33.9%
- HEMOGLOBIN [3]: 13 G/DL
- LEUKOCYTE COUNT [3]: 9.37 x10E3/uL
- LYMPHOCYTE [3]: 87%
- MEAN CORPUSCULAR HEMOGLOBIN [3]: 24.13 pg
- MEAN CORPUSCULAR HEMOGLOBIN CONCENTRATION [3]: 38.37 G/DL
- MEAN CORPUSCULAR VOLUME [3]: 62.93 fL
- MONOCYTE [3]: 1.67%
- NEUTROPHIL [3]: 11%
- NUCLEATED RED BLOOD CELLS [3]: 0.33 /100WBC
- PLATELET COUNT [3]: 1139.67 x10E3/uL
- ALANINE AMINOTRANSFERASE [3]: 52.33 u/L
- ALBUMIN [3]: 3.97 G/DL
- ALKALINE PHOSPHATASE [3]: 386 u/L
- ASPARTATE AMINOTRANSFERASE [3]: 89.67 u/L
- BLOOD UREA NITROGEN [3]: 15.33 mg/dL
- CARBON DIOXIDE [3]: 32.33 mmol/L
- CHLORIDE [3]: 102.33 MEQ/L
- CHOLESTEROL [3]: 79.33 mg/dL
- CREATINE PHOSPHOKINASE [3]: 258 u/L
- CREATININE [3]: 0.16 mg/dL
- GLUCOSE [3]: 148.67 mg/dL
- LACTATE DEHYDROGENASE [3]: 117.33 u/L
- LIPASE [3]: 9.33 u/L
- PHOSPHORUS [3]: 11.17 mg/dL
- POTASSIUM [3]: 6.13 MEQ/L
- SODIUM [3]: 148.3 MEQ/L
- TOTAL BILIRUBIN [3]: 0.2 mg/dL
- TOTAL PROTEIN [3]: 5.87 G/DL
- URIC ACID [3]: 0.43 mg/dL
